# Columns and labels:
# PDE7A = PDE7A (Homo sapiens (Human), UniProt Q13946); assay: In vitro enzyme assay, PDE7; assay type: biochemical; conditions: 15 nM cAMP
# PDE6C = PDE6C (Homo sapiens (Human), UniProt P51160); assay: In vitro enzyme assay, PDE6; assay type: biochemical; conditions: […] cGMP
# PDE5A1 = PDE5A1 (Homo sapiens (Human), UniProt O76074); assay: In vitro enzyme assay, PDE5; assay type: biochemical; conditions: PDE5A, 500 nM cGMP
# PDE10A1 [1] = target: T1, PDE10A1 (Homo sapiens (Human), UniProt Q9Y233); assay: In vitro enzyme assay, PDE10; conditions: read-out: IC50 PDE10; PDE10A, 30 nM cAMP
# T1 sequence (Q9Y233 other isoform, or with tags, fused parts or gaps): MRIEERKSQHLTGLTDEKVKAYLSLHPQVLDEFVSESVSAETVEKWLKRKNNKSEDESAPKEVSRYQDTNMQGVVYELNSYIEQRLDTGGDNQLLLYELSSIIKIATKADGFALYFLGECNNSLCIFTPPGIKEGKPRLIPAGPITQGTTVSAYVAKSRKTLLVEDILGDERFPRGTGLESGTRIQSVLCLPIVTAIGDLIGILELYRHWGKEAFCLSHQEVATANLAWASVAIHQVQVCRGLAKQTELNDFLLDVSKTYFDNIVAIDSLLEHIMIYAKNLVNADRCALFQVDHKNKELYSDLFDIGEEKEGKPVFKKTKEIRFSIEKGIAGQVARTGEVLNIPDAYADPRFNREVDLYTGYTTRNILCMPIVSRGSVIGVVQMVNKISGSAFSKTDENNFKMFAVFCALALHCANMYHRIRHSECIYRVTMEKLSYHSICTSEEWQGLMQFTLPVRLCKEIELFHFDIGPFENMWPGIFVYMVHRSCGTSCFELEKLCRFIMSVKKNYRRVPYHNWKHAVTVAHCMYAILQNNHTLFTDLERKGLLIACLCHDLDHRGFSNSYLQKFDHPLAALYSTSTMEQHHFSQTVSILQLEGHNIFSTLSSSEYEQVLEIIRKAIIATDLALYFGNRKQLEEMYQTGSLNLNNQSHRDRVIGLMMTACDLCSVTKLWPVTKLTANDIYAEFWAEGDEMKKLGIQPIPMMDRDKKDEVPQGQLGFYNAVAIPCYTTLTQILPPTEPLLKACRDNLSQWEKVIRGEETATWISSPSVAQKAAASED
# REC-1 cells = assay: Apoptosis of REC-1 B cell leukemia cell line; assay type: cell-based; conditions: for effect on apoptosis, in words: REC-1
# JVM-2 cells = assay: Apoptosis of JVM-2 B cell leukemia cell line; assay type: cell-based; conditions: for effect on apoptosis, in words: JVM-2
# [2] = test system: chronic lymphocytic leukemia cells from a third leukemia patient; assay: Apoptosis of chronic lymphocytic leukemia cells, third patient (JM167); assay type: cell-based, human
# Excerpt: (§1) In collaboration with other researchers, the effect of different PDE inhibitors on chronic lymphocytic leukemia cells was investigated. The lymphocytic leukemia cells were obtained from individual patients and cannot be maintained in cell culture.
# human PDE11A4 = human PDE11A4 (Homo sapiens (Human), UniProt Q9HCR9); assay: biochemical
# human PDE11A4, sequence (Q9HCR9 whole entry): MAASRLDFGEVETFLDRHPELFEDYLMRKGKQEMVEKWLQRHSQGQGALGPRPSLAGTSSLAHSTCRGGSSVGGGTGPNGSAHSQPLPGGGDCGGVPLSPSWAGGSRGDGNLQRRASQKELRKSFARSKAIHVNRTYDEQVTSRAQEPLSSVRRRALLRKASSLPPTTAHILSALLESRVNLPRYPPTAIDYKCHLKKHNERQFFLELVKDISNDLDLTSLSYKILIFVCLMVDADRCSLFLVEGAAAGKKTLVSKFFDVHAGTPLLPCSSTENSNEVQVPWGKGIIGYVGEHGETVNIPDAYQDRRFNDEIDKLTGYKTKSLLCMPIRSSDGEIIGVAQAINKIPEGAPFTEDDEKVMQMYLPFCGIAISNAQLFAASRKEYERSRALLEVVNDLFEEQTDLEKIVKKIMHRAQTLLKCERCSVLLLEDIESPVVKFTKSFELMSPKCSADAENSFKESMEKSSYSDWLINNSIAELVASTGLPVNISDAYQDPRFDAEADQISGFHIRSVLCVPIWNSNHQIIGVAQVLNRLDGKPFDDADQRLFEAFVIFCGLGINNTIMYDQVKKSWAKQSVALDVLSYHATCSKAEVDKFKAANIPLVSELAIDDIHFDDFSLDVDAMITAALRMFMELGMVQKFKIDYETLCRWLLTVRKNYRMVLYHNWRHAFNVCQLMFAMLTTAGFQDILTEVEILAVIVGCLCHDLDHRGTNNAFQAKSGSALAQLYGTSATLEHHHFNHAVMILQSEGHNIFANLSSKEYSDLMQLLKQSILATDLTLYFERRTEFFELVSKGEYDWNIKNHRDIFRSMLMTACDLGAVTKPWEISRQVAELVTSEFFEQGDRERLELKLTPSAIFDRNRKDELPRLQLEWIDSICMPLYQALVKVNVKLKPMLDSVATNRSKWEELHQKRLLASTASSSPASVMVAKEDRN
# [3] = test system: chronic lymphocytic leukemia cells from a first leukemia patient; assay: Apoptosis of chronic lymphocytic leukemia cells, first patient; assay type: cell-based, human; parameters: % apoptosis: dose or concentration left out as unconfirmed; conditions: for effect on apoptosis, in words: first patient, high background apoptosis
# Excerpt: as §1
# normal T cells = assay: Apoptosis of normal T cells; assay type: cell-based; conditions: for cell viability of normal T cells: with or without rolipram
# PDE10A1 [4] = target: T1, PDE10A1; assay: biochemical
# HeLa cells [5] = assay: CREB phosphorylation immunoblot in HeLa cells; assay type: cell-based; conditions: as for H295R cells (20 μM)
# Procedure: (§2) Human NCI-H295R cells were maintained as described (33). HeLa cells were maintained in DMEM with 10% FBS. 90% confluent cells in 12-well dishes were incubated in serum-starved media for 1 h, then in 0.5 ml serum-starved media with 20 µM compounds or 0.2% DMSO for 2 h in the absence or presence of 10 μM forskolin (Sigma Aldrich). Media was collected and cAMP levels were measured as described (33), using a cAMP ELISA kit (Enzo). cAMP levels were normalized to protein content measured using a BCA Protein Assay Kit (Pierce). Immunoblot analysis of protein lysates was performed as described (34), using phospho-CREB(9198), Akt(4685), or CREB(9197) primary antibodies (Cell Signaling Technology) and goat anti-rabbit IgG-HRP secondary antibody (sc-2030, Santa Cruz).
# H295R cells [6] = assay: Cortisol assay in H295R cells; assay type: cell-based, human; conditions: 20 μM, 24 h, forskolin
# Procedure: H295R cells were treated with compounds as described in the cAMP assays, for 24 h. Media was collected and cortisol content was quantified using a Cortisol EIA Kit (Oxford Biomedical Research). Cortisol levels were normalized to protein concentrations in cell extracts, as described above.
# H295R cells [7] = assay: ATF-1 phosphorylation immunoblot in H295R cells; assay type: cell-based, human
# Procedure: as §2
# HeLa cells [8] = assay: cAMP assay in HeLa cells; assay type: cell-based; conditions: as for H295R cells (20 μM)
# Procedure: as §2
# H295R cells [9] = assay: cAMP assay in H295R adrenocortical cells; assay type: cell-based, human; conditions: 20 μM, 2 h, absence or presence of 10 μM forskolin
# Procedure: as §2
# [10] = test system: chronic lymphocytic leukemia cells from a second leukemia patient; assay: Apoptosis of chronic lymphocytic leukemia cells, second patient (JM168); assay type: cell-based, human
# Excerpt: as §1
# [11] = compound 20 μM plus Rolipram (20 μM)
# PDE7A, sequence (Q13946 whole entry): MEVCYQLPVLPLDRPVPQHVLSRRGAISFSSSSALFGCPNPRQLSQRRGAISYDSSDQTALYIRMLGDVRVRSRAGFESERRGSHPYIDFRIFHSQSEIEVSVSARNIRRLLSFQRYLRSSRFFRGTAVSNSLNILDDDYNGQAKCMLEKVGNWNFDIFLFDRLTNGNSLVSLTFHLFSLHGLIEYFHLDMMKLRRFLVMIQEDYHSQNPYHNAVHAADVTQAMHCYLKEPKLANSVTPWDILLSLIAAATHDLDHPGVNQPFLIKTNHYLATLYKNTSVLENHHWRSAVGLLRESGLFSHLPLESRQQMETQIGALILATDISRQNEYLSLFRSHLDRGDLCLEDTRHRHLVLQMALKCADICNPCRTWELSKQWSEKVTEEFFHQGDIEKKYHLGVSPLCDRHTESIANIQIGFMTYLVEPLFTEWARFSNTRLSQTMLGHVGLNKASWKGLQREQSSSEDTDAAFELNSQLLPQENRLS
# PDE6C, sequence (P51160 whole entry): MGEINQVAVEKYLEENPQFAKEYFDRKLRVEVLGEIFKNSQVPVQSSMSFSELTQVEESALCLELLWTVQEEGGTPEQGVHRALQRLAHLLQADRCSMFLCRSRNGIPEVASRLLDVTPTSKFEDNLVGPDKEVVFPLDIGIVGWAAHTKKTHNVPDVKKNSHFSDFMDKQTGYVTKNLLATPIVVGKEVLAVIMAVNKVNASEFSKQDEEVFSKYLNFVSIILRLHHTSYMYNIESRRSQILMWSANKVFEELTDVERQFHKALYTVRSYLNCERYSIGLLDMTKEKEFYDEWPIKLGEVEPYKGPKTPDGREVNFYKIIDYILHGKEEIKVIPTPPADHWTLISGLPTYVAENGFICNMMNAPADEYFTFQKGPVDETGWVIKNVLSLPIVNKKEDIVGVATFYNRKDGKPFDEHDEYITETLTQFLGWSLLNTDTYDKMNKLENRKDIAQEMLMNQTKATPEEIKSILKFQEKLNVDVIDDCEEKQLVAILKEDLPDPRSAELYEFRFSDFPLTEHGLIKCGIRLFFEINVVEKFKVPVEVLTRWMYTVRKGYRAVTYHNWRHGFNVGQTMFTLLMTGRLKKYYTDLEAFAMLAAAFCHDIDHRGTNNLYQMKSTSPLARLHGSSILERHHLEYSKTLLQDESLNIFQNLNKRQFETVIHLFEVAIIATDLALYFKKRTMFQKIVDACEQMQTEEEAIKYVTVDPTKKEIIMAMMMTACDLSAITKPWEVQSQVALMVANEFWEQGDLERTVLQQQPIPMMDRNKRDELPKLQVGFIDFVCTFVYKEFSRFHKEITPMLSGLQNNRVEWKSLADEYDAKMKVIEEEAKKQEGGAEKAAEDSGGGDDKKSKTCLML
smiles,measurement,setting,value
CCN(CC)C(=O)c1cc(-c2cccs2)nc2c1c(C)nn2-c1ccccc1C [BC11-15],IC50,PDE7A,43 µM
same,IC50,PDE6C,25 µM
same,IC50,PDE5A1,43 µM
same,IC50,PDE10A1 [1],35 µM
C=CCSc1nnc2n(-c3ccccc3)c(=O)c3c(C)c(C)sc3n12 [BC11-8],Apoptosis (%) REC-1 Cells (B cell leukemia),REC-1 cells; 40 μM,66.2%
same,"effect on apoptosis, in words",REC-1 cells,increased apoptosis
same,Apoptosis (%) JVM-2 Cells (B cell leukemia),JVM-2 cells; 40 μM,28.8%
same,"effect on apoptosis, in words",JVM-2 cells,increased apoptosis
same,% apoptosis,"[2]; BC11-8 0.1 μM, Roli 0 μM",6.31%
same,% apoptosis,"[2]; BC11-8 0.1 μM, Roli 0.2 μM",11.7%
same,% apoptosis,"[2]; BC11-8 0.1 μM, Roli 2.0 μM",22.7%
same,% apoptosis,"[2]; BC11-8 0.1 μM, Roli 20 μM",28.2%
same,% apoptosis,"[2]; BC11-8 1.0 μM, Roli 0 μM",7.63%
same,% apoptosis,"[2]; BC11-8 1.0 μM, Roli 0.2 μM",13.1%
same,% apoptosis,"[2]; BC11-8 1.0 μM, Roli 2.0 μM",19.5%
same,% apoptosis,"[2]; BC11-8 1.0 μM, Roli 20 μM",26.7%
same,% apoptosis,"[2]; BC11-8 10.0 μM, Roli 0 μM",21.8%
same,% apoptosis,"[2]; BC11-8 10.0 μM, Roli 0.2 μM",28.5%
same,% apoptosis,"[2]; BC11-8 10.0 μM, Roli 2.0 μM",40.1%
same,% apoptosis,"[2]; BC11-8 10.0 μM, Roli 20 μM",41.5%
same,"effect on apoptosis, in words","[2]; third patient, additive with rolipram",increased apoptosis
same,IC50,human PDE11A4,0.05 µM
same,% apoptosis,[3]; compound,63.3%
same,% apoptosis,[3]; compound alone (DMSO),60.1%
same,"effect on apoptosis, in words",[3],increase in apoptosis
same,% apoptosis of normal T cells,normal T cells; compound 20 μM alone (DMSO),10.3%
same,% apoptosis of normal T cells,normal T cells; [11],14.7%
same,cell viability of normal T cells,normal T cells,did not affect cell viability
same,IC50,PDE10A1 [4],0.2 µM
CCCSc1nc2c(c(=O)n1-c1ccccc1)SCC2 [BC11-38],CREB phosphorylation in HeLa cells,HeLa cells [5],do not increase
same,cortisol production by H295R cells,H295R cells [6],significantly increased
same,phosphorylation of ATF1,H295R cells [7],PDE11A-specific increase
same,cAMP levels in HeLa cells,HeLa cells [8],do not increase
same,cAMP levels in H295R cells,H295R cells [9],significantly increased
"COc1ccc(C2CNC(=O)C2)cc1OC1CCCC1 (stereo not drawn) [Rolipram, rolipram, reference compound]",Apoptosis (%) REC-1 Cells (B cell leukemia),REC-1 cells; 20 μM,56.7%
same,"effect on apoptosis, in words",REC-1 cells,not affected
same,Apoptosis (%) JVM-2 Cells (B cell leukemia),JVM-2 cells; 20 μM,18.5%
same,"effect on apoptosis, in words",JVM-2 cells,not affected
same,% apoptosis,"[2]; Roli 0.2 μM, BC11-8 0 μM",13.2%
same,% apoptosis,"[2]; Roli 2.0 μM, BC11-8 0 μM",23.5%
same,% apoptosis,"[2]; Roli 20 μM, BC11-8 0 μM",29.9%
same,% apoptosis,"[10]; Roli 0.2 μM, BC11-4 0 μM",12.7%
same,% apoptosis,"[10]; Roli 2.0 μM, BC11-4 0 μM",24.9%
same,% apoptosis,"[10]; Roli 20 μM, BC11-4 0 μM",33.8%
same,% apoptosis,[3]; compound alone (DMSO),46.7%
same,"effect on apoptosis, in words",[3],not affected
same,% apoptosis of normal T cells,normal T cells; compound 20 μM alone (DMSO),9.4%
Cn1c(NC(=O)c2ccccc2NC(=O)c2ccccc2)nc2ccccc21 [BC11-4],Apoptosis (%) REC-1 Cells (B cell leukemia),REC-1 cells; 40 μM,100%
same,"effect on apoptosis, in words",REC-1 cells,increased apoptosis
same,Apoptosis (%) JVM-2 Cells (B cell leukemia),JVM-2 cells; 40 μM,32.3%
same,"effect on apoptosis, in words",JVM-2 cells,increased apoptosis
same,% apoptosis,"[10]; BC11-4 0.1 μM, Roli 0 μM",6.65%
same,% apoptosis,"[10]; BC11-4 0.1 μM, Roli 0.2 μM",10.4%
same,% apoptosis,"[10]; BC11-4 0.1 μM, Roli 2.0 μM",21.2%
same,% apoptosis,"[10]; BC11-4 0.1 μM, Roli 20 μM",28.8%
same,% apoptosis,"[10]; BC11-4 1.0 μM, Roli 0 μM",4.71%
same,% apoptosis,"[10]; BC11-4 1.0 μM, Roli 0.2 μM",10.8%
same,% apoptosis,"[10]; BC11-4 1.0 μM, Roli 2.0 μM",20.8%
same,% apoptosis,"[10]; BC11-4 1.0 μM, Roli 20 μM",29.6%
same,% apoptosis,"[10]; BC11-4 10.0 μM, Roli 0 μM",5.78%
same,% apoptosis,"[10]; BC11-4 10.0 μM, Roli 0.2 μM",4.93%
same,% apoptosis,"[10]; BC11-4 10.0 μM, Roli 2.0 μM",6.72%
same,% apoptosis,"[10]; BC11-4 10.0 μM, Roli 20 μM",15.8%
same,"response of cells (apoptosis), in words",[10]; second patient,did not respond
same,% apoptosis,[3]; compound,66.9%
same,% apoptosis,[3]; compound alone (DMSO),70.1%
same,"effect on apoptosis, in words",[3],increase in apoptosis
same,% apoptosis of normal T cells,normal T cells; compound 20 μM alone (DMSO),14.3%
same,% apoptosis of normal T cells,normal T cells; [11],13.9%
same,cell viability of normal T cells,normal T cells,did not affect cell viability
O=c1nc2sc3ccccc3n2c(=O)n1-c1ccccc1 [BC11-19],cortisol production by H295R cells,H295R cells [6],consistently elevates
same,cAMP levels in H295R cells,H295R cells [9],consistently elevates

# Source: US9173884B2, “Inhibitors of phosphodiesterase 11 (PDE11)” (TRUSTEES OF BOSTON COLLEGE, priority 2011, dated 2015)
